Details: Liquid, Gas chromatography

C=CC(=C)CCC=C(C)C [2-methyl-6-methylene-2,7-octadiene]
Details	vapor or sublimation pressure [kPa]
287.7 K	0.1
297.15 K	0.21
298.15 K	0.22
313.2 K	0.57
320.4 K	0.87
323.2 K	1
328.2 K	1.3
330 K	1.5
333.3 K	1.8
338.2 K	2.3
340.2 K	2.5
343.5 K	2.9
348.2 K	3.7
353.2 K	4.6
353.4 K	4.6
355.8 K	5.2
358.2 K	5.7
360 K	6.2
363.3 K	7.1
365.8 K	7.9
366.2 K	8
370 K	9.4
371.9 K	10
379.2 K	13
385 K	17
390 K	20
399.2 K	27
410 K	38
418.2 K	49
421.5 K	54
428.2 K	65
433.5 K	76
439.1 K	90
444.7 K	101

CC1(C)C2=CCCC(C)(C)[C@]23CC[C@H]1C3 [(-)-isolongifolene]
Details	vapor or sublimation pressure [kPa]
298.15 K	0.0043
310 K	0.011
320 K	0.023
330 K	0.046
340 K	0.086
350 K	0.16
360 K	0.27
370 K	0.46
378.2 K	0.69
380.2 K	0.76
386.2 K	1
388.2 K	1.1
392.2 K	1.3
393.2 K	1.4
395 K	1.5
400 K	1.8
410 K	2.8
419.2 K	4
424.2 K	4.8
430 K	6
440 K	8.5
450 K	11.8
460 K	16
470 K	22
480 K	29
490 K	38
500 K	50
510 K	63.88
520 K	81
527 K	95.41
528.2 K	100
529.6 K	101

— the NIST ThermoML archive (doi:10.1016/j.jct.2018.12.013)
